Assay results as given in patent publication US20220220106A1, “QUINOLINE COMPOUNDS AND PHARMACEUTICAL COMPOSITIONS AND USES THEREOF” (Academy of Military Medical Sciences, priority 2019, published 2022).
Like-named read-outs stand apart in the source and are kept apart here.

How the values were obtained:
[1] = test system: RD cells; test: Detection of cytotoxicity in RD cells (CellTiter-Glo); format: cell-based; conditions: 4 days, CellTiter-Glo, median toxic dose
Method: Detection of Cytotoxicity:
(1) The compound to be tested was diluted to a concentration of 400 μM with the cell maintenance solution, and 3-fold gradient dilution was carried out to obtain 10 concentrations in total.
(2) The diluted compound was added to a 96-well plate with white wall and transparent bottom, with 100 μL per well. An equal volume of the cell maintenance solution was added to the cell control group.
(3) RD cells were inoculated into the above 96-well plate at a concentration of 1*10^5/mL, with 100 μL per well, to reach a final volume of 200 μL per well, and the final concentration of drug was 0.5 times the pretreatment concentration.
(4) The RD cells were cultured at 37° C. for 4 days for testing.
(5) The Buffer of CellTiter-Glo® luminescent cell viability assay reagent was mixed with the substrate in the dark to prepare a working solution.
(§1) (6) The culture medium in the plate was discarded, the plate was dried by patting, 100 μL of the detection reagent was added to each well, and the 96-well plate was shaken on an orbital shaker for 4 minutes to induce cell lysis. After keeping in the dark and subjecting to signal stabilization for 15 minutes, the chemiluminescence unit was detected, and the plate reading program was performed according to the CellTiter-Glo preset program.
(§2) The formula for calculating the inhibition rates of drug at different dilution degrees was as follows: inhibition rate (%)=(average value of cell control group−value of experimental group)/(average value of cell control group−minimum value of experimental group)*100
(§3) The inhibition rate-concentration curve was fitted to S-curve by using origin8.0 software, and the IC50 value of the compound to be tested was calculated. The same method was used to calculate the TD50 value, and the selection index SI=TD50/IC50 was calculated according to the half maximal inhibitory concentration IC50 and the median toxic dose TD50.

[2] = test system: Enterovirus 71 (EV71) H strain; test: In vitro anti-EV71 activity (antiviral activity in RD cells, CellTiter-Glo); format: cell-based; conditions: for IC50: EV71 H strain, RD cells, 4 days, CellTiter-Glo, read-out: IC50; for in vitro anti-EV71 activity, in words: EV71, RD cells
Method: According to the mass and molecular weight of the compound to be tested, the compound to be tested was dissolved to 100 mM (mmol/L) with DMSO.
Detection of Antiviral Activity:
(1) First, the compound to be tested was diluted to 800 μM with cell maintenance solution (DMEM+2% FBS, Gibco, catalog numbers: 11995-065, 1600-044), and three-fold gradient dilution was performed to prepare 10 concentrations in total. The diluted compound was added to a 96-well plate with white wall and transparent bottom, 50 μl per well. To both the cell control group and the virus control group, an equal volume of the cell maintenance solution was added.
(2) EV71 virus (purchased from ATCC) was taken out from the −80° C. refrigerator and equilibrated to room temperature.
(3) The virus seed was diluted with a virus growth solution (DMEM+2% FBS, Gibco, catalog numbers: 11995-065, 1600-044) to 100TCID50, the diluted virus seed was added to the 96-well plate of (1), with […] per well. The same volume of the virus growth solution was added to the cell control group.
(4) RD cells (purchased from ATCC) were inoculated at a concentration of 1*10^5/mL into the 96-well plate of (1), with 100 μL per well, to reach a final volume of 200 μL per well. The final concentration of drug was 0.25 times the initial concentration.
(5) RD cells were cultured at 37° C. for 4 days for testing.
(6) The Buffer of CellTiter-Glo® luminescent cell viability assay reagent (Promega) was mixed with the substrate in the dark to prepare a working solution.
as §1, with “(7)” for “(6)”, “detected by using MD5 microplate reader (Molecular Devices),” for “detected,”
The inhibition rate-concentration curve was fitted to S-curve by using origin8.0 software to calculate the IC50 value of the compound to be tested.
as §2, §3

Molecule	melting point [°C]	TD50 [1] [µM]	IC50 ([2]; Enterovirus A, 96 h) [µM]	in vitro anti-EV71 activity, in words [2]	IC50 [2] [µM]
CC(=O)/C=C/c1cnc2ccc(-c3cccc(Cl)c3)cc2c1Nc1cccc(C(F)(F)F)c1 [HTL-3-36, (E)-6-(3-chloro)phenyl-4-[3-(trifluoromethyl)phenyl]aminoquinoline-3-butenone]	182 to 183	4.65 ± 3.50	> 200	–	–
CC(=O)/C=C/c1cnc2ccc(-c3ccc(F)nc3)cc2c1Nc1cccc(C(F)(F)F)c1 [HTL-3-43, (E)-6-[3-(6-fluoro)pyridyl]-4-[3-(trifluoromethyl)phenyl]aminoquinoline-3-butenone]	133 to 134	2.23 ± 0.08	> 200	–	–
CCOC(=O)CC/C=C/c1ccc2ncc3oc(=O)n(-c4cccc(C(F)(F)F)c4)c3c2c1 [HTL-6-38, (E)-8-(4-ethoxycarbonyl-but-1-enyl)-1-[3-(trifluoromethyl)phenyl]oxazolo [5,4-c]quinolin-2(1H)-one]	162 to 164	22.74 ± 0.01	> 200	–	–
COc1cncc(-c2ccc3ncc(/C=C/C(C)=O)c(Nc4cccc(C(F)(F)F)c4)c3c2)c1 [HTL-3-07, (E)-6-[3-(5-methoxy)pyridyl]-4-[3-(trifluoromethyl)phenyl]aminoquinoline-3-butenone]	164 to 167	>200	> 200	–	–
N#Cc1cncc(-c2ccc3ncc4oc(=O)n(-c5cccc(C(F)(F)F)c5)c4c3c2)c1 [HTL-5-36, 8-[3-(5-cyano)pyridyl]-1-[3-(trifluoromethyl)phenyl]oxazolo[5,4-c]quinolin-2(1H)-one]	262 to 263	13.41 ± 0.18	> 200	–	–
CC(=O)/C=C/c1cnc2ccc(-c3ccc(N)nc3)cc2c1Nc1cccc(C(F)(F)F)c1 [HTL-2-34, (E)-6-[3-(6-amino)pyridyl]-4-[3-(trifluoromethyl)phenyl]aminoquinoline-3-butenone]	172 to 175	4.99 ± 1.55	1.78 ± 0.03	moderate anti-EV71 activity	–
C=CCNc1ccc(-c2ccc3ncc4ccc(=O)n(-c5cccc(C(F)(F)F)c5)c4c3c2)cn1 [HTL-7-28, 9-[3-(6-allylamino)pyridyl]-2-oxo-1-[3-(trifluoromethyl)phenyl]-1,2-dihydrobenzo[h][1,6]naphthyridine]	142 to 146	0.23 ± 0.01	0.09 ± 0.01	–	–
Cc1cc(Nc2ccc3ncc4ccc(=O)n(-c5cccc(C(F)(F)F)c5)c4c3c2)ccc1F [HTL-6-24, 9-[(4-fluoro-3-methyl)phenyl]imino-2-oxo-1-[3-(trifluoromethyl)phenyl]-1,2-dihydrobenzo[h][1,6]naphthyridine]	210 to 211	7.2 ± 0.33	> 200	–	–
CCCc1ccc(-c2ccc3ncc(/C=C/C(C)=O)c(Nc4cccc(C(F)(F)F)c4)c3c2)cc1 [HTL-3-40, (E)-6-(4-propyl)phenyl-4-[3-(trifluoromethyl)phenyl]aminoquinoline-3-butenone]	166 to 169	0.83 ± 0.03	> 200	–	–
O=c1ccc2cnc3ccc(Nc4ccc(F)nc4)cc3c2n1-c1cccc(C(F)(F)F)c1 [HTL-6-20, 9-[3-(6-fluoropyridyl)]imino-2-oxo-1-[3-(trifluoromethyl)phenyl]-1,2-dihydrobenzo[h][1,6]naphthyridine]	232 to 233	59.31 ± 3.98	> 200	–	–
O=c1oc2cnc3ccc(-c4ccc(F)nc4)cc3c2n1-c1cccc(C(F)(F)F)c1 [HTL-5-28, 8-[3-(6-fluoro)pyridyl]-1-[3-(trifluoromethyl)phenyl]oxazolo[5,4-c]quinolin-2(1H)-one]	262 to 263	>200	> 200	–	–
O=c1ccc2cnc3ccc(Nc4ccc(Cl)cc4)cc3c2n1-c1cccc(C(F)(F)F)c1 [HTL-6-25, 9-(4-chlorophenyl)imino-2-oxo-1-[3-(trifluoromethyl)phenyl]-1,2-dihydrobenzo[h][1,6]naphthyridine]	212 to 213	4.56 ± 0.26	> 200	–	–
C#CCNc1ccc(-c2ccc3ncc4ccc(=O)n(-c5cccc(C(F)(F)F)c5)c4c3c2)cn1 [HTL-7-29, 9-[3-(6-propargylamino)pyridyl]-2-oxo-1-[3-(trifluoromethyl)phenyl]-1,2-dihydrobenzo[h][1,6]naphthyridine]	139 to 141	0.29 ± 0.03	0.09	–	–
CC(=O)/C=C/c1cnc2ccc(-c3ccncc3)cc2c1Nc1cccc(C(F)(F)F)c1 [HTL-3-04, (E)-6-(4-pyridyl)-4-[3-(trifluoromethyl)phenyl]aminoquinoline-3-butenone]	192 to 195	>200	> 200	–	–
Nc1cncc(Nc2ccc3ncc4ccc(=O)n(-c5cccc(C(F)(F)F)c5)c4c3c2)n1 [HTL-6-28, 9-[2-(6-aminopyrazinyl)]imino-2-oxo-1-[3-(trifluoromethyl)phenyl]-1,2-dihydrobenzo[h][1,6]naphthyridine]	192 to 194	8.67 ± 0.97	3.7 ± 0.03	moderate activity	–
CC(=O)/C=C/c1cnc2ccc(-c3cncc(C#N)c3)cc2c1Nc1cccc(C(F)(F)F)c1 [HTL-3-46, (E)-6-[3-(5-cyano)pyridyl]-4-[3-(trifluoromethyl)phenyl]aminoquinoline-3-butenone]	227 to 229	3.59 ± 2.46	> 200	–	–
COc1cncc(-c2ccc3ncc4oc(=O)n(-c5cccc(C(F)(F)F)c5)c4c3c2)c1 [HTL-5-30, 8-[3-(5-methoxy)pyridyl]-1-[3-(trifluoromethyl)phenyl]oxazolo[5,4-c]quinolin-2(1H)-one]	257 to 258	68.52 ± 0.42	> 200	–	–
(E)-6-[3-(N-6-benzyloxyamido)pyridyl]-4-[3-(trifluoromethyl)phenyl]aminoquinoline-3-butenone [HTL-7-22]	–	9.4 ± 8.0	–	–	> 200
CCCc1ccc(-c2ccc3ncc4oc(=O)n(-c5cccc(C(F)(F)F)c5)c4c3c2)cc1 [HTL-5-34, 8-(4-propyl)phenyl-1-[3-(trifluoromethyl)phenyl]oxazolo[5,4-c]quinolin-2(1H)-one]	220 to 221	>200	> 200	–	–
CC(=O)/C=C/c1cnc2ccc(-c3ccc(C(C)C)cc3)cc2c1Nc1cccc(C(F)(F)F)c1 [HTL-3-39, (E)-6-(4-isopropyl)phenyl-4-[3-(trifluoromethyl)phenyl]aminoquinoline-3-butenone]	143 to 144	1.75 ± 0.73	> 200	–	–
O=c1oc2cnc3ccc(-c4ccc(C(F)(F)F)cc4)cc3c2n1-c1cccc(C(F)(F)F)c1 [HTL-5-29, 8-(4-trifluoromethyl)phenyl-1-[3-(trifluoromethyl)phenyl]oxazolo[5,4-c]quinolin-2(1H)-one]	265 to 266	>200	> 200	–	–
O=c1ccc2cnc3ccc(Nc4ccc(C(F)(F)F)cc4)cc3c2n1-c1cccc(C(F)(F)F)c1 [HTL-6-16, 9-[4-(trifluoromethyl)phenyl]imino-2-oxo-1-[3-(trifluoromethyl)phenyl]-1,2-dihydrobenzo[h][1,6]naphthyridine]	–	7.06 ± 0.23	> 200	–	–
